Experimental data published in patent US4246340A, “Method and reagent for bioluminiscence” (LKB-Producter AB, priority 1979, dated 1981).

What was measured:
[1] = molecular target: T1, luciferase (Photinus pyralis, UniProt P08659); conditions: inhibition of luciferase; literature value; cited from earlier work
[2] = molecular target: T1, luciferase; experiment: Inhibition of the luciferase reaction (literature Ki values); format: biochemical; conditions: if 10^-6 M ATP generated 10^-6 M AMP; estimated from Ki; 1 µM
Text: To the extent free AMP and free oxluciferin are formed in the reaction it could also be of interest to study whether this would affect the product inhibition. […] Consequently it may under certain conditions be important to counteract the effect of the generation of free oxyluciferin. The addition of D-luciferin analog makes the initial inhibition of the luciferase so big that the additional inhibition from the oxyluciferin, which is continuously formed during the reaction, will be negligible. The addition of inhibiting concentrations of a D-luciferin analog will thus stabilize the light level.

T1 sequence (P08659 whole entry): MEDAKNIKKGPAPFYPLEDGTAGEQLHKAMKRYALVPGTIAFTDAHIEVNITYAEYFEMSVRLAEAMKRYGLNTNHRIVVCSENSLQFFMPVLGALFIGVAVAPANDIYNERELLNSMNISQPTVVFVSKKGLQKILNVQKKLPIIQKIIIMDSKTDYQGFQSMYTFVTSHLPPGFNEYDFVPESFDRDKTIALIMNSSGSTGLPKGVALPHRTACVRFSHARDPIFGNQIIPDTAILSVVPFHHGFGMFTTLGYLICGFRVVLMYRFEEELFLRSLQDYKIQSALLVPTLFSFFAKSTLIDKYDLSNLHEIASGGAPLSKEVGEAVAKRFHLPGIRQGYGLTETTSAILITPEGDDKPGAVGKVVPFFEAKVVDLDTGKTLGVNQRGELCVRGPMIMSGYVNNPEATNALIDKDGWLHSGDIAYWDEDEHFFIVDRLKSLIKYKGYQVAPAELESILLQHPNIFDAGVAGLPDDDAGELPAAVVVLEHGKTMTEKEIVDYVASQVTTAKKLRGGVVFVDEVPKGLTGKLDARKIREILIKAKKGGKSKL

Structure (SMILES) | Ki [1] [µM] | effect on the luciferase activity [2]
O=C1CSC(c2nc3ccc(O)cc3s2)=N1 [oxyluciferin] | 0.23 | –
Nc1ncnc2c1ncn2[C@@H]1O[C@H](COP(=O)(O)O)[C@@H](O)[C@H]1O [AMP, adenosinel monophosphate] | 240 | less than 0.5%
